The record followed here is ChEMBL document CHEMBL5214890 (Eur J Med Chem, 2021).

The source made the active and inactive calls. The calls are words filed in the database; no cut-off is given here. Where a SMILES comes first, the peptide text is derived from it. [ ]: non-standard residue; d: D form. ξ: configuration not given here. Thr(3ξ) = CC(O)[C@H](N)C(=O)O; Aib = CC(C)(N)C(=O)O

Data set [1] deals with T1, Glucagon-like peptide 1 receptor (Homo sapiens, UniProt P43220). The data set is described as follows: Agonist activity at human GLP-1R expressed in HEK293 cells incubated for 30 mins and assessed as increase in cAMP accumulation measured by HTRF assay. The class given is functional, cell-based.
The target in data set [2] is T1, Glucagon-like peptide 1 receptor. Nature of the data set: Agonist activity at human GLP-1R expressed in HEK293 cells incubated for 30 mins and assessed as increase in cAMP accumulation measured by HTRF assay relative to control. It counts as functional, cell-based. Also on record: concentration or dose not given beside the values.
The target in another data set is Glucagon receptor (Homo sapiens, UniProt P47871). Nature of the data set: Agonist activity at human GCGR expressed in HEK293 cells incubated for 30 mins and assessed as increase in cAMP accumulation measured by HTRF assay. The class given is functional, cell-based. In general terms: Cyclic AMP is a second messenger, typically raised through Gs and lowered through Gi signalling.

The test system of data set [3] is Mus musculus. The data set is described as follows: Antidiabetic activity in male […] assessed as decrease in serum LDL-C level at 30 nmol/kg, sc administered twice daily for 3 weeks. The class given is functional, organism-based.
In data set [4] the test system is Mus musculus. Nature of the data set: Antidiabetic activity in male […] assessed as reduction in fasted glucose level at 30 nmol/kg, sc administered twice daily for 3 weeks. It counts as functional, organism-based.
Data set [5] relates to Mus musculus. Nature of the data set: Antidiabetic activity in male […] assessed as increase in plasma insulin level at 30 nmol/kg, sc administered twice daily for 3 weeks. It counts as functional, organism-based.
The subject of data set [6] is Mus musculus. Nature of the data set: Antidiabetic activity in male […] assessed as reduction in body weight at 30 nmol/kg, sc administered twice daily for 3 weeks. It counts as functional. Also on record: scale not given: the % may be the effect or the level left.
Data set [7] is described as follows: Toxicity in male […] assessed as normalization of hepatic lipid content at 30 nmol/kg, sc administered twice daily for 3 weeks. The class given is organism-based. To be noted: in vivo, 504 h.
The test system of data set [8] is Mus musculus. The data set is described as follows: Antidiabetic activity in male […] assessed as increase in plasma FGF21 level at 30 nmol/kg, sc administered twice daily for 3 weeks. The class given is functional, organism-based.
Data set [9] deals with Mus musculus. Nature of the data set: Antidiabetic activity in male […] assessed as increase in serum HDL/LDL ratio at 30 nmol/kg, sc administered twice daily for 3 weeks. It counts as functional, organism-based.

T1 sequence (P43220 whole entry): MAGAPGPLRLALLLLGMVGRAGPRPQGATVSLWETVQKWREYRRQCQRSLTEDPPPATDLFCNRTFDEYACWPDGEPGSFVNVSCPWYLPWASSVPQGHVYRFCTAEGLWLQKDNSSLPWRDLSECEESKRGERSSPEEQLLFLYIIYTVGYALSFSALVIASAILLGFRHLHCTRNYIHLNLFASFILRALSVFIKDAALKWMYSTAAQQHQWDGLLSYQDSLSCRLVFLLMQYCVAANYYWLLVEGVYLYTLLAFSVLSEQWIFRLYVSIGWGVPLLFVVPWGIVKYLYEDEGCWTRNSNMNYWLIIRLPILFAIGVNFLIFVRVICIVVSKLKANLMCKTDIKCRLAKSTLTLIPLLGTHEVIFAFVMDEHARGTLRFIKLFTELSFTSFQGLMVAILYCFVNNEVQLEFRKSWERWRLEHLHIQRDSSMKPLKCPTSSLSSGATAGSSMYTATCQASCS
Glucagon receptor, sequence (P47871 whole entry): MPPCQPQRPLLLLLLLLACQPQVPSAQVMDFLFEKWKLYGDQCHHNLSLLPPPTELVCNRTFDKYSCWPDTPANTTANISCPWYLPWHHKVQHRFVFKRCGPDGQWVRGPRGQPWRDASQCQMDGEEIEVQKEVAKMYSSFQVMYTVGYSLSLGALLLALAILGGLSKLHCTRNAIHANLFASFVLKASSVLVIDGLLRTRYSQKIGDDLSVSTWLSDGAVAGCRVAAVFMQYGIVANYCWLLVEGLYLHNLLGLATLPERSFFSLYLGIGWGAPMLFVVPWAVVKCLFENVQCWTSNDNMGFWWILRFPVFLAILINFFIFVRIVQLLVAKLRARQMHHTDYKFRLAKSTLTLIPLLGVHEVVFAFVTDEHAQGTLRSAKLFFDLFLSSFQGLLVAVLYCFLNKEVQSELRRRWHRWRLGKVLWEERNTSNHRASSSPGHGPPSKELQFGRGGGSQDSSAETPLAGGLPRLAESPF

Broadly, the EC50 is the concentration needed to bring the measured effect to its halfway point. For `CC[C@H](C)[C@H](NC(=O)[C@H](CC(C)C)NC(=O)[C@H](Cc1c[nH]c2ccccc12)NC(=O)[C@H](CCC(=O)O)NC(=O)[C@@H](NC(=O)[C@H](Cc1ccccc1)NC(=O)[C@H](CCC(=O)O)NC(=O)[C@H](CCCCN)NC(=O)[C@H](C)NC(=O)[C@H](C)NC(=O)[C@H](CCC(=O)O)NC(=O)[C@H](CCC(=O)O)NC(=O)[C@H](CCC(=O)O)NC(=O)[C@H](CC(C)C)NC(=O)[C@H](Cc1ccc(O)cc1)NC(=O)[C@H](CCC(=O)O)NC(=O)[C@@H](NC(=O)[C@@H](NC(=O)[C@H](CC(=O)O)NC(=O)[C@H](CC(N)=O)NC(=O)[C@@H](NC(=O)[C@H](Cc1ccc(O)cc1)NC(=O)[C@@H](NC(=O)CNC(=O)[C@H](CCC(=O)O)NC(=O)C(C)(C)NC(=O)[C@@H](N)Cc1c[nH]cn1)[C@@H](C)O)[C@@H](C)O)C(C)C)[C@@H](C)O)[C@@H](C)CC)C(=O)N[C@@H](CCCCN)C(=O)NCC(=O)N[C@@H](CCCCN)C(N)=O` (H-H[Aib]EGTYTNDVTEYLEEEAAKEFIEWLIKGK-NH2), the EC50 was 0.041 nM in data set [1] and > 1000 nM on Glucagon receptor. For the same compound, the Activity in data set [2] (filed as agonist) was determined as 100%.
In the case of `CCCCCCCCCCCCCCCC(=O)N[C@@H](CCC(=O)NCCCC[C@H](NC(=O)[C@H](CO)NC(=O)[C@@H]1CCCN1C(=O)[C@@H]1CCCN1C(=O)[C@@H]1CCCN1C(=O)[C@H](C)NC(=O)CNC(=O)[C@H](CO)NC(=O)[C@H](CO)NC(=O)[C@@H]1CCCN1C(=O)CNC(=O)CNC(=O)[C@H](CC(N)=O)NC(=O)[C@H](CCCCN)NC(=O)[C@H](CC(C)C)NC(=O)[C@H](Cc1c[nH]c2ccccc12)NC(=O)[C@H](CCC(=O)O)NC(=O)[C@@H](NC(=O)[C@H](Cc1ccccc1)NC(=O)[C@H](CC(=O)O)NC(=O)[C@H](CCC(N)=O)NC(=O)[C@H](C)NC(=O)[C@H](CCCNC(=N)N)NC(=O)[C@H](CCCNC(=N)N)NC(=O)[C@H](CO)NC(=O)[C@H](CC(=O)O)NC(=O)[C@H](CC(C)C)NC(=O)[C@H](Cc1ccc(O)cc1)NC(=O)[C@H](CCCCN)NC(=O)[C@H](CO)NC(=O)[C@@H](NC(=O)[C@H](CC(=O)O)NC(=O)[C@H](CC(N)=O)NC(=O)[C@@H](NC(=O)[C@H](Cc1ccc(O)cc1)NC(=O)[C@@H](NC(=O)CNC(=O)[C@H](CCC(N)=O)NC(=O)[C@@H](CO)NC(=O)[C@@H](N)Cc1c[nH]cn1)[C@@H](C)O)[C@@H](C)O)C(C)C)[C@@H](C)CC)C(N)=O)C(=O)O`, the EC50 in [1] came out at 0.086 nM; on Glucagon receptor, 0.28 nM. Moreover, the Activity in data set [2] (filed as agonist) amounted to 47.7%.
Regarding `CC[C@H](C)[C@H](NC(=O)[C@H](Cc1ccccc1)NC(=O)[C@H](CC(=O)O)NC(=O)[C@H](CCC(N)=O)NC(=O)[C@H](C)NC(=O)[C@H](CCCNC(=N)N)NC(=O)[C@H](CCCNC(=N)N)NC(=O)[C@H](CO)NC(=O)[C@H](CC(=O)O)NC(=O)[C@H](CC(C)C)NC(=O)[C@H](Cc1ccc(O)cc1)NC(=O)[C@H](CCCCN)NC(=O)[C@H](CO)NC(=O)[C@@H](NC(=O)[C@H](CC(=O)O)NC(=O)[C@H](CC(N)=O)NC(=O)[C@@H](NC(=O)[C@H](Cc1ccc(O)cc1)NC(=O)[C@@H](NC(=O)CNC(=O)[C@H](CCC(N)=O)NC(=O)[C@H](CO)NC(=O)[C@@H](N)Cc1c[nH]cn1)[C@@H](C)O)[C@@H](C)O)C(C)C)C(=O)N[C@@H](CCC(=O)O)C(=O)N[C@@H](Cc1c[nH]c2ccccc12)C(=O)N[C@@H](CC(C)C)C(=O)N[C@@H](CCSC)C(=O)N[C@@H](CC(N)=O)C(=O)N[C@H](C(N)=O)C(C)O` (some centres undefined) (H-HSQGTYTNDVSKYLDSRRAQDFIEWLMN[Thr(3ξ)]-NH2), the figures for the 50% effective concentration (EC50) (in [1]; on Glucagon receptor) were 0.68 nM and 0.41 nM, respectively. Besides, the Activity in data set [2] came to 6%.
Taken in the same sequence, the figures for “H-HSQGTYTNDVTEYLDSRRAQDFIEWLKNGGPSSGAPPPS-NH2” were 0.22 nM, 39 nM and 18.6%.
Turning to `CCCCCCCCCCCCCCCC(=O)N[C@@H](CCC(=O)N[C@@H](CCC(=O)NCCCC[C@H](NC(=O)[C@H](CC(=O)O)NC(=O)[C@H](CO)NC(=O)[C@@H](NC(=O)[C@H](Cc1ccccc1)NC(=O)[C@@H](NC(=O)CNC(=O)[C@H](CCC(N)=O)NC(=O)[C@H](CO)NC(=O)[C@@H](N)Cc1cnc[nH]1)[C@@H](C)O)[C@@H](C)O)C(=O)N[C@@H](CO)C(=O)N[C@@H](CCC(=O)O)C(=O)N[C@@H](Cc1ccc(O)cc1)C(=O)N[C@@H](CC(C)C)C(=O)N[C@@H](CC(=O)O)C(=O)N[C@@H](CO)C(=O)N[C@@H](CCC(=O)O)C(=O)N[C@@H](CCCNC(=N)N)C(=O)N[C@@H](C)C(=O)N[C@@H](CCCNC(=N)N)C(=O)N[C@@H](CC(=O)O)C(=O)N[C@@H](Cc1ccccc1)C(=O)N[C@H](C(=O)N[C@@H](C)C(=O)N[C@@H](Cc1c[nH]c2ccccc12)C(=O)N[C@@H](CC(C)C)C(=O)N[C@@H](CCC(=O)O)C(=O)N[C@@H](C)C(=O)NCC(=O)NCC(=O)O)C(C)C)C(=O)O)C(=O)O`, the result in the data set on Mus musculus [3], with Mus musculus [4], in the data set on Mus musculus [5], with Mus musculus [8] and with Mus musculus [9] was Active. The figures for the Activity (in the data set with Mus musculus [6]; in [7]) were 26.4% and “Non-Toxic”, respectively.
For “H-HSQGTYTNDVTQYLDSRRAQQFIEWLMNTKRNRNNIA-NH2”, the values for the concentration for a half-maximal effect (EC50) (in [1]; at Glucagon receptor) were 0.62 nM and 0.93 nM, respectively. In addition, the Activity in data set [2] is 6.6%.
For H-HSQGTYTNDVSKYLDSRRAQDFIEWLIKG-NH2, the EC50 in data set [1] was determined as 0.56 nM; on Glucagon receptor, 1.9 nM. The Activity in [2] worked out at 7.3%.
The matching figures for `CC[C@H](C)[C@H](NC(=O)[C@H](Cc1ccccc1)NC(=O)[C@H](CC(=O)O)NC(=O)[C@H](CCC(N)=O)NC(=O)[C@H](C)NC(=O)[C@H](CCCNC(=N)N)NC(=O)[C@H](CCCNC(=N)N)NC(=O)[C@H](CO)NC(=O)[C@H](CC(=O)O)NC(=O)[C@H](CC(C)C)NC(=O)[C@H](Cc1ccc(O)cc1)NC(=O)[C@H](CCC(N)=O)NC(=O)[C@@H](NC(=O)[C@@H](NC(=O)[C@H](CC(=O)O)NC(=O)[C@H](CC(N)=O)NC(=O)[C@@H](NC(=O)[C@H](Cc1ccc(O)cc1)NC(=O)[C@@H](NC(=O)CNC(=O)[C@H](CCC(N)=O)NC(=O)[C@H](CO)NC(=O)[C@@H](N)Cc1c[nH]cn1)[C@@H](C)O)[C@@H](C)O)C(C)C)[C@@H](C)O)C(=O)N[C@@H](CCC(=O)O)C(=O)N[C@@H](Cc1c[nH]c2ccccc12)C(=O)N[C@@H](CC(C)C)C(=O)N[C@@H](CCSC)C(=O)N[C@@H](CC(N)=O)C(=O)N[C@H](C(N)=O)C(C)O` (some centres undefined) (H-HSQGTYTNDVTQYLDSRRAQDFIEWLMN[Thr(3ξ)]-NH2): 0.73 nM, 0.43 nM and 5.6%.
On to `CCCCCCCCCCCCCCCC(=O)N[C@H](CCC(=O)NCCCC[C@H](NC(=O)[C@H](CO)NC(=O)[C@@H](NC(=O)[C@H](CC(=O)O)NC(=O)[C@H](CC(N)=O)NC(=O)[C@@H](NC(=O)[C@H](Cc1ccc(O)cc1)NC(=O)[C@@H](NC(=O)CNC(=O)[C@H](CCC(N)=O)NC(=O)[C@@H](CO)NC(=O)[C@@H](N)Cc1c[nH]cn1)[C@@H](C)O)[C@@H](C)O)C(C)C)C(=O)N[C@@H](Cc1ccc(O)cc1)C(=O)N[C@@H](CC(C)C)C(=O)N[C@@H](CC(=O)O)C(=O)N[C@@H](CO)C(=O)N[C@@H](CCCNC(=N)N)C(=O)N[C@@H](CCCNC(=N)N)C(=O)N[C@@H](C)C(=O)N[C@@H](CCC(N)=O)C(=O)N[C@@H](CC(=O)O)C(=O)N[C@@H](Cc1ccccc1)C(=O)N[C@H](C(=O)N[C@@H](CCC(=O)O)C(=O)N[C@@H](Cc1c[nH]c2ccccc12)C(=O)N[C@@H](CC(C)C)C(=O)N[C@@H](CCCCN)C(=O)N[C@@H](CC(N)=O)C(=O)NCC(=O)NCC(=O)N1CCC[C@H]1C(=O)N[C@@H](CO)C(=O)N[C@@H](CO)C(=O)NCC(=O)N[C@@H](C)C(=O)N1CCC[C@H]1C(=O)N1CCC[C@H]1C(=O)N1CCC[C@H]1C(=O)N[C@@H](CO)C(N)=O)[C@@H](C)CC)C(=O)O`, for which, in data set [1] (hek293), the EC50 came to 0.051 nM. In addition, the Activity in [2] (filed as agonist) is 80.4%.
H-HSQGTYTNDVTEYLDSRRAQEFIEWLIKGK-NH2: the EC50 stood at 0.16 nM in [1] and 2.7 nM at Glucagon receptor. Further, the Activity in [2] was found to be 25.6%.
For “H-HSQGTYTNDVSKYLDSRRAQDFIEWLKNGGPSSGAPPPS-NH2”, the EC50 in data set [1] worked out at 0.053 nM; on Glucagon receptor, 0.15 nM. In [2] (filed as agonist), the Activity came out at 77.4%.
The matching figures for “H-HSQGTYTNDVSKYLDSRRAQDFIEWLIKGKRNRNNIA-NH2”: 0.078 nM, 0.28 nM and 52.6%.
With H-HSQGTYTNDVSKYLDSRRAQDFIEWLIKGK-NH2, the values for the half-maximal effective concentration (EC50) (in data set [1]; on Glucagon receptor) were 0.14 nM and 1.3 nM, respectively. In addition, the Activity in [2] is 29.3%.
Taken in the same sequence, the figures for “H-HSQGTYTNDVSKYLDSRRAQQFIEWLMNTKRNRNNIA-NH2” were 0.57 nM, 0.42 nM and 7.2%.
Taken in the same sequence, the figures for H-HSQGTYTNDVTEYLDSRRAQDFIEWLIKGK-NH2 were 0.12 nM, 2.6 nM and 34.2%.
Regarding “H-HSQGTYTNDVSKYLDSRRAQDFIEWLIKGKPSSGAPPPS-NH2”, the figures for the EC50 (in [1]; on Glucagon receptor) were 0.24 nM and 0.85 nM, respectively. In addition, in data set [2], the Activity was 17.1%.
Taken in the same sequence, the figures for “H-HSQGTYTNDVTEYLDSRRAQDFIEWLIKGKPSSGAPPPS-NH2” were 0.45 nM, 1.3 nM and 9.1%.
